The record followed here is patent US9169270B2, “1-phenyl-substituted heterocyclyl derivatives and their use as prostaglandin D2 receptor modulators” (Actelion Pharmaceuticals Ltd., priority 2012, dated 2015).

This assay concerns the target hCRTH2 receptor (Homo sapiens (Human), UniProt Q9Y5Y4). Briefly: hCRTH2 receptor membranes radioligand (3H-PGD2) displacement assay. The conditions noted are these: hCRTH2 membrane fragments, Binding-Buffer with 0.1% BSA. How it is done: Biological Assays: Preparation of hCRTH2 Receptor Membranes and Radioligand Displacement Assay:
First, recombinant HEK293-hCRTH2 cells were detached from culture plates into 5 ml buffer A/plate (Buffer A: 5 mM Tris, 1 mM MgCl2-6H2O pH=7.4) using a rubber policeman. Cells were then transferred into centrifugation tubes and centrifuged for 5 min at 400 g. The cell pellet was resuspended in the same buffer and tubes were frozen at −80° C. Cells were thawed and membrane fragments were generated by homogenization using a polytron homogenizer (30 seconds). The membrane fragments were then centrifuged at 3000 g for 20 minutes and resuspended in buffer C (Buffer C: 75 mM Tris, 25 mM MgCl2, 250 mM Saccharose pH 7.4). Aliquots of membrane fragments were stored at −20° C.
Binding assay was performed in a final assay volume of 250 μl. First, 25 μl of test compound, previously diluted in Binding-Buffer (Binding-Buffer: 50 mM Tris-Base, 100 mM NaCl, 1 mM EDTA, 0.1% BSA (protease free), 0.01% NaN3, 10 mM MnCl2, pH 7.0) was placed into each well. […] Binding assay was started by addition of 100 μl CRTH2 membrane fragments, reaching a final concentration of 20 μg/well. For non-specific binding, PGD2 was added to the reaction mixture to […] final concentration. This assay mix was incubated for 90 minutes at room temperature and then filtered through a GF/C filter 96-well plate which was pre-soaked for 3 hours in 0.5% polyethyleneimine (PEI). The filter-wells were washed three times with ice cold Binding-Buffer. Then, 40 μl of Microscint-40 (Packard) was added to each well and the retained radioactivity quantified in a Topcount (Packard).

The structures appear in SMILES notation.

hCRTH2 receptor, sequence (Q9Y5Y4 whole entry, the tested form may be a part): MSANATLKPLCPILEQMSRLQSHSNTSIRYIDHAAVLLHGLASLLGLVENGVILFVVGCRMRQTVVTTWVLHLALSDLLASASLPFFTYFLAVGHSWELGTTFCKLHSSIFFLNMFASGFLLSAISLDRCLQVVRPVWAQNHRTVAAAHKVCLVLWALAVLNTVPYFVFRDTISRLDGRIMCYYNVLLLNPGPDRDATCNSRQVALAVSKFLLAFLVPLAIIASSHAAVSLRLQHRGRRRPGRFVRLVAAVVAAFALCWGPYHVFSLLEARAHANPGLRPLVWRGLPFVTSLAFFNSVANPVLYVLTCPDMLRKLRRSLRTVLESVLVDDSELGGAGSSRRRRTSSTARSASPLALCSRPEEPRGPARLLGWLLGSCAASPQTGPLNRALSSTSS

Consider `O=C(O)COc1ccc(Cl)cc1C1c2scnc2CCN1C(=O)OCc1cccc(F)c1F` (racemic) [Example 82, (±)-4-(2-Carboxymethoxy-5-chloro-phenyl)-6,7-dihydro-4H-thiazolo[5,4-c]pyridine-5-carboxylic acid 2,3-difluoro-benzyl ester], for which the half-inhibitory concentration (IC50) (in general, the midpoint of a concentration-inhibition curve) stood at 8.5 nM.
`O=C(O)COc1ccc(Cl)cc1C1c2scnc2CCN1C(=O)OCc1ccccc1F` (racemic) [Example 79, (±)-4-(2-Carboxymethoxy-5-chloro-phenyl)-6,7-dihydro-4H-thiazolo[5,4-c]pyridine-5-carboxylic acid 2-fluoro-benzyl ester] came in with an IC50 of 3 nM.
The figure for `Cc1ccccc1[C@@H]1C[C@H]1C(=O)N1CCc2ncsc2C1c1cc(Cl)ccc1OCC(=O)O` (mixture of isomers) [Example 25, (±)-{4-Chloro-2-[trans-5-(2-o-tolyl-cyclopropanecarbonyl)-4,5,6,7-tetrahydro-thiazolo[5,4-c]pyridin-4-yl]-phenoxy}-acetic acid] is 6.5 nM.
Turning to `O=C(O)COc1ccc(Cl)cc1C1c2scnc2CCN1C(=O)CC1Cc2ccccc2C1` (racemic) [Example 46, (±)-{4-Chloro-2-[5-(2-indan-2-yl-acetyl)-4,5,6,7-tetrahydro-thiazolo[5,4-c]pyridin-4-yl]-phenoxy}-acetic acid], the IC50 worked out at 6.2 nM.
For the compound `O=C(O)COc1ccc(Cl)cc1C1c2scnc2CCN1C(=O)OCCc1ccccc1` (racemic) [Example 88, (±)-4-(2-Carboxymethoxy-5-chloro-phenyl)-6,7-dihydro-4H-thiazolo[5,4-c]pyridine-5-carboxylic acid phenethyl ester], the 50% inhibitory concentration (IC50) came to 6.4 nM.
`O=C(O)COc1ccc(Cl)cc1C1c2scnc2CCN1C(=O)OCc1ccc(Cl)cc1Cl` (racemic) [Example 94, (±)-4-(2-Carboxymethoxy-5-chloro-phenyl)-6,7-dihydro-4H-thiazolo[5,4-c]pyridine-5-carboxylic acid 2,4-dichloro-benzyl ester] gave a concentration for half-maximal inhibition (IC50) of 17.1 nM.
With `O=C(O)COc1ccc(Cl)cc1C1c2sc(C(F)(F)F)nc2CCN1C(=O)OCc1ccccc1` (racemic) [Example 12, (±)-4-(2-Carboxymethoxy-5-chloro-phenyl)-2-trifluoromethyl-6,7-dihydro-4H-thiazolo[5,4-c]pyridine-5-carboxylic acid benzyl ester], the half-inhibitory concentration (IC50) was determined as 6.5 nM.
Regarding `O=C(O)COc1ccc(Cl)cc1C1c2scnc2CCN1C(=O)[C@@H]1C[C@H]1c1ccccc1C(F)(F)F` (mixture of isomers) [Example 23, (±)-(4-Chloro-2-{trans-5-[2-(2-trifluoromethyl-phenyl)-cyclopropanecarbonyl]-4,5,6,7-tetrahydro-thiazolo[5,4-c]pyridin-4-yl}-phenoxy)-acetic acid], the IC50 was 6.5 nM.
Regarding `O=C(O)COc1ccc(Cl)cc1[C@@H]1c2scnc2CCN1C(=O)OCCCF` [Example 74, (R)-4-(2-Carboxymethoxy-5-chloro-phenyl)-6,7-dihydro-4H-thiazolo[5,4-c]pyridine-5-carboxylic acid 3-fluoro-propyl ester], the IC50 is 1.4 nM.
As to `C[C@@H](Oc1ccc(Cl)cc1C1c2scnc2CCN1C(=O)OCc1ccccc1)C(=O)O` (mixture of isomers) [Example 119, (±)-4-[2-((R)-1-Carboxy-ethoxy)-5-chloro-phenyl]-6,7-dihydro-4H-thiazolo[5,4-c]pyridine-5-carboxylic acid benzyl ester], the IC50 amounted to 18.5 nM.
The same measure for `O=C(O)COc1ccc(Cl)cc1C1c2scnc2CCN1C(=O)OCc1ccccc1Cl` (racemic) [Example 84, (±)-4-(2-Carboxymethoxy-5-chloro-phenyl)-6,7-dihydro-4H-thiazolo[5,4-c]pyridine-5-carboxylic acid 2-chloro-benzyl ester]: 3.5 nM.
With `O=C(O)COc1ccc(Cl)cc1C1c2scnc2CCN1C(=O)COc1ccccc1` (racemic) [Example 34, (±)-{4-Chloro-2-[5-(2-phenoxy-acetyl)-4,5,6,7-tetrahydro-thiazolo[5,4-c]pyridin-4-yl]-phenoxy}-acetic acid], the IC50 is 87.4 nM.
The figure for `O=C(O)COc1ccc(Cl)cc1C1c2sc(-c3ccccc3)nc2CCN1C(=O)OCc1ccccc1` (racemic) [Example 112, (±)-4-(2-Carboxymethoxy-5-chloro-phenyl)-2-phenyl-6,7-dihydro-4H-thiazolo[5,4-c]pyridine-5-carboxylic acid benzyl ester] is 30.9 nM; for `O=C(O)COc1ccc(Cl)cc1C1c2sc(Br)nc2CCN1C(=O)OCc1ccccc1` (racemic) [Example 20, (±)-2-Bromo-4-(2-carboxymethoxy-5-chloro-phenyl)-6,7-dihydro-4H-thiazolo[5,4-c]pyridine-5-carboxylic acid benzyl ester] it is 3 nM.
Consider `O=C(O)COc1ccc(Cl)cc1C1c2scnc2CCN1C(=O)CCCc1ccc(F)cc1` (racemic) [Example 51, (±)-(4-Chloro-2-{5-[4-(4-fluoro-phenyl)-butyryl]-4,5,6,7-tetrahydro-thiazolo[5,4-c]pyridin-4-yl}-phenoxy)-acetic acid], for which the IC50 was 9.7 nM.
The figure for `O=C(O)COc1ccc(Cl)cc1C1c2scnc2CCN1C(=O)CCN1CCc2ccccc21` (racemic) [Example 52, (±)-{4-Chloro-2-[5-(3-2,3-dihydro-indol-1-yl-propionyl)-4,5,6,7-tetrahydro-thiazolo[5,4-c]pyridin-4-yl]-phenoxy}-acetic acid] is 17.7 nM; for `Cc1cccc(COC(=O)N2CCc3ncsc3C2c2cc(Cl)ccc2OCC(=O)O)c1C` (racemic) [Example 101, (±)-4-(2-Carboxymethoxy-5-chloro-phenyl)-6,7-dihydro-4H-thiazolo[5,4-c]pyridine-5-carboxylic acid 2,3-dimethyl-benzyl ester] it is 6.1 nM.
The same measure for `O=C(O)COc1ccc(Cl)cc1C1c2scnc2CCN1C(=O)[C@@H]1C[C@H]1c1ccccc1Cl` (mixture of isomers) [Example 24, (±)-(4-Chloro-2-{trans-5-[2-(2-chloro-phenyl)-cyclopropanecarbonyl]-4,5,6,7-tetrahydro-thiazolo[5,4-c]pyridin-4-yl}-phenoxy)-acetic acid]: 7.3 nM; for `O=C(O)COc1ccc(Cl)cc1C1c2scnc2CCN1C(=O)OCc1cc(F)ccc1Cl` (racemic) [Example 92, (±)-4-(2-Carboxymethoxy-5-chloro-phenyl)-6,7-dihydro-4H-thiazolo[5,4-c]pyridine-5-carboxylic acid 2-chloro-5-fluoro-benzyl ester]: 2.2 nM; for `O=C(O)COc1ccc(Cl)cc1C1c2scnc2CCN1C(=O)NCc1ccc(F)cc1` (racemic) [Example 3, (±)-{4-Chloro-2-[5-(4-fluoro-benzylcarbamoyl)-4,5,6,7-tetrahydro-thiazolo[5,4-c]pyridin-4-yl]-phenoxy}-acetic acid]: 124 nM.
The same measure for `O=C(O)COc1ccc(Cl)cc1C1c2scnc2CCN1C(=O)OCc1ccc(F)cc1` (racemic) [Example 80, (±)-4-(2-Carboxymethoxy-5-chloro-phenyl)-6,7-dihydro-4H-thiazolo[5,4-c]pyridine-5-carboxylic acid 4-fluoro-benzyl ester]: 1.9 nM.
In turn, `O=C(O)COc1ccc(Cl)cc1C1c2scnc2CCN1C(=O)NCCc1ccccc1` (racemic) [Example 107, (±)-[4-Chloro-2-(5-phenethylcarbamoyl-4,5,6,7-tetrahydro-thiazolo[5,4-c]pyridin-4-yl)-phenoxy]-acetic acid] had an IC50 of 5.7 nM.
The figure for `O=C(O)COc1ccc(Cl)cc1C1c2scnc2CCN1C(=O)Cc1n[nH]c2ccccc12` (racemic) [Example 44, (±)-{4-Chloro-2-[5-(2-1H-indazol-3-yl-acetyl)-4,5,6,7-tetrahydro-thiazolo[5,4-c]pyridin-4-yl]-phenoxy}-acetic acid] is 48.1 nM; for `CCCCOC(=O)N1CCc2ncsc2C1c1cc(Cl)ccc1OCC(=O)O` (racemic) [Example 99, (±)-4-(2-Carboxymethoxy-5-chloro-phenyl)-6,7-dihydro-4H-thiazolo[5,4-c]pyridine-5-carboxylic acid butyl ester] it is 11.8 nM; for `Cc1ccc(/C=C/C(=O)N2CCc3ncsc3C2c2cc(Cl)ccc2OCC(=O)O)cc1` (racemic) [Example 56, (±)-{4-Chloro-2-[5-((E)-3-p-tolyl-acryloyl)-4,5,6,7-tetrahydro-thiazolo[5,4-c]pyridin-4-yl]-phenoxy}-acetic acid] it is 71.9 nM.
As for `Cc1nc2c(s1)C(c1cc(Cl)ccc1OCC(=O)O)N(C(=O)OCc1ccccc1)CC2` (racemic) [Example 15, (±)-4-(2-Carboxymethoxy-5-chloro-phenyl)-2-methyl-6,7-dihydro-4H-thiazolo[5,4-c]pyridine-5-carboxylic acid benzyl ester], the IC50 was 6.2 nM.
As to `O=C(O)COc1ccc(Cl)cc1C1c2scnc2CCN1C(=O)OCCc1cccc(F)c1` (racemic) [Example 77, (±)-4-(2-Carboxymethoxy-5-chloro-phenyl)-6,7-dihydro-4H-thiazolo[5,4-c]pyridine-5-carboxylic acid 2-(3-fluoro-phenyl)-ethyl ester], the half-inhibitory concentration (IC50) was found to be 2.3 nM.
